Laboratory results reported in patent publication US7071165B2, “LHRH antagonist peptides” (Indiana University Research and Technology Corporation, priority 1995, dated 2006).
Where a name gives a salt, the structure may show the parent alone. Starred links: 1 amine or outer side, 2 acyl side, 3 side chain; linkers in the order of their positions; H or OH if unused. Non-standard residues stand in square brackets, D forms with d. Residues, ends and D or L forms follow the SMILES beside them. *: point of attachment. X2 = O=C([C@@H](Cc1ccc[n+](Cc2ccccc2)c1)N[*:1])[*:2]; dPhe(4-Cl) = N[C@H](Cc1ccc(Cl)cc1)C(=O)O; X3 = C[S+](C)CC[C@@H](N[*:1])C(=O)[*:2]; X4 = C[S+](C)CC[C@H](N[*:1])C(=O)[*:2]; d2Nal = N[C@H](Cc1ccc2ccccc2c1)C(=O)O; Lys(iPr) = CC(C)NCCCC[C@H](N)C(=O)O; NMeY = CN[C@@H](Cc1ccc(O)cc1)C(=O)O; d3Pal = N[C@H](Cc1cccnc1)C(=O)O; NHCH2CH2SO3H = O=S(=O)(O)CCN*; X1 = O=C(c1ccc[n+]([O-])c1)*; Sar = CNCC(=O)O

Tests used:
rat mast cells = test: Histamine release assay, rat mast cells
Description: The term “histamine-releasing activity”, as used herein, refers to the tendency of a compound to release histamine when administered to a subject. The histamine-releasing activity of a compound can be measured with an in vitro assay (described in more detail, infra). […] Histamine-releasing activity was assayed by the method described in U.S. Pat. No. 4,851,385 to Roeske. Briefly, a suspension of rat mast cells was added to increasing concentrations of an LHRH antagonist peptide and incubated for 15 minutes at 37° C. The buffer contained 25 mM PIPES, pH 7.4, NaCl (119 mM), KCl (5 mM), NaOH (40 mM) glucose (5.6 mM), CaCl2 (1 mM) and 0.1% bovine serum albumin.

ovulation in female rats [1] = test: Anti-ovulatory activity (AOA) in vivo assay in rats; parameters: species or system rat; conditions: for AO activity (AOA), in words: rat, in vivo
Description: As used herein, “LHRH antagonist peptide” is intended to include peptides and peptide analogs which inhibit LHRH activity (i.e., has “LHRH antagonist activity”) in vivo or in vitro. Candidate LHRH antagonist peptides can be assayed, for example, in the animal model described in Corbin and Beattie, Endocrine Res. Commun. 2:1 (1975) (and see infra). In this assay, the LHRH antagonistic activity of a candidate compound is assayed by measuring the antiovulatory activity (AOA) of the compound in rats.
Anti-ovulatory activity (AOA) was measured by an in vivo assay in rats, as described in Corbin and Beattie, Endocrine Res. Commun. 2:1 (1975). In brief, female rats are injected with a candidate LHRH antagonist on the day of proestrus; in general, the candidate LHRH antagonist was dissolved in 0.1% DMSO. The ability of the candidate peptide to inhibit ovulation is measured by determining the number of rats which ovulate. A candidate peptide is considered to have LHRH antagonist qualities if it inhibits ovulation in at least 50% of the treated rats at a dose of 5 μg per rat. Preferred LHRH antagonists inhibit ovulation in at least 50% of rats at a dose of 2 μg per rat, more preferably at a dose of […], and still more preferably at a dose of 0.5 μg per rat.

ovulation in female rats [2] = test: as above; conditions: dose 0.5 μg per rat
[3] = rat mast cells, 15 minutes at 37° C.

Row | Histamine-releasing activity, in words (rat mast cells) | Compound | Histamine release ED50 (rat mast cells; [3]) [µg/mL] | AO activity (AOA): rats which ovulate / rats treated (ovulation in female rats [1]; dose 1 μg per rat) | other results
1 | very low histamine release | CC(=O)N[C@H](Cc1ccc2ccccc2c1)C(=O)N[C@H](Cc1ccc(Cl)cc1)C(=O)N[C@H](Cc1cccnc1)C(=O)N[C@@H](CO)C(=O)N[C@@H](Cc1ccc(O)cc1)C(=O)N[C@H](CCC(N)=O)C(=O)N[C@@H](CC(C)C)C(=O)N[C@@H](CCCCNC(C)C)C(=O)N1CCC[C@H]1C(=O)N[C@H](C)C(N)=O [Compound 3341, Ac-D-Nal^1,4-Cl-D-Phe^2, D-Pal^3, D-Gln^6-Lys(iPr)^8, D-Ala^10-LHRH.TFA] (Ac-[d2Nal][dPhe(4-Cl)][d3Pal]SY[dQ]L[Lys(iPr)]P[dA]-NH2) | – | – | –
2 | very low histamine release | CC(=O)N[C@H](Cc1ccc2ccccc2c1)C(=O)N[C@H](Cc1ccc(Cl)cc1)C(=O)N[C@H](Cc1cccnc1)C(=O)N[C@@H](CO)C(=O)N[C@@H](Cc1ccc(O)cc1)C(=O)N[C@H](CC(N)=O)C(=O)N[C@@H](CC(C)C)C(=O)N[C@@H](CCCCNC(C)C)C(=O)N1CCC[C@H]1C(=O)N[C@H](C)C(N)=O [Compound 3342, Ac-D-Nal^1,4-Cl-D-Phe^2, D-Pal^3, D-Asn^6-Lys(iPr)^8, D-Ala^10-LHRH.TFA] (Ac-[d2Nal][dPhe(4-Cl)][d3Pal]SY[dN]L[Lys(iPr)]P[dA]-NH2) | – | – | –
3 | very low histamine release | CC(=O)N[C@H](Cc1ccc2ccccc2c1)C(=O)N[C@H](Cc1ccc(Cl)cc1)C(=O)N[C@H](Cc1cccnc1)C(=O)N[C@@H](CO)C(=O)N[C@@H](Cc1ccc(O)cc1)C(=O)N[C@@H](C(=O)N[C@@H](CC(C)C)C(=O)N[C@@H](CCCCNC(C)C)C(=O)N1CCC[C@H]1C(=O)N[C@H](C)C(N)=O)[C@H](C)O [Compound 3343, Ac-D-Nal^1,4-Cl-D-Phe^2, D-Pal^3, D-Thr^6-Lys(iPr)^8, D-Ala^10-LHRH.TFA] (Ac-[d2Nal][dPhe(4-Cl)][d3Pal]SY[dT]L[Lys(iPr)]P[dA]-NH2) | – | – | –
4 | very low histamine release | CC(=O)N[C@H](Cc1ccc2ccccc2c1)C(=O)N[C@H](Cc1ccc(Cl)cc1)C(=O)N[C@H](Cc1cccnc1)C(=O)N[C@@H](CO)C(=O)N[C@@H](Cc1ccc(O)cc1)C(=O)N[C@H](CCC(=O)NCCS(=O)(=O)O)C(=O)N[C@@H](CC(C)C)C(=O)N[C@@H](CCCCNC(C)C)C(=O)N1CCC[C@H]1C(=O)N[C@H](C)C(N)=O [Compound 3361, Ac-D-Nal^1,4-Cl-D-Phe^2, D-Pal^3, D-Glu(Taurine)^6-Lys(iPr)^8, D-Ala^10-LHRH.TFA] (Ac-[d2Nal][dPhe(4-Cl)][d3Pal]SY[dE](NHCH2CH2SO3H)L[Lys(iPr)]P[dA]-NH2) | – | – | –
5 | very little histamine-releasing activity | CC(=O)N(C)CC(=O)N[C@H](Cc1ccc(Cl)cc1)C(=O)N[C@H](Cc1ccc2ccccc2c1)C(=O)N[C@@H](CO)C(=O)N[C@@H](Cc1ccc(O)cc1)C(=O)N[C@H](Cc1ccc[n+](Cc2ccccc2)c1)C(=O)N[C@@H](CC(C)C)C(=O)N[C@@H](CCCCNC(C)C)C(=O)N1CCC[C@H]1C(=O)N[C@H](C)C(N)=O [Compound 3763, Ac-Sar^1,4-Cl-D-Phe^2, D-Nal^3, D-Pal(Bzl)^6, Lys(iPr)^8, D-Ala^10-LHRH.2TFA] (Ac-[Sar][dPhe(4-Cl)][d2Nal]SY[X2]L[Lys(iPr)]P[dA]-NH2) | – | – | –
6 | low histamine releasing activity | CC(=O)N[C@H](Cc1ccc2ccccc2c1)C(=O)N[C@H](Cc1ccc(Cl)cc1)C(=O)N[C@H](Cc1cccnc1)C(=O)N[C@@H](CO)C(=O)N(C)[C@@H](Cc1ccc(O)cc1)C(=O)N[C@H](CCCCNC(=O)c1ccc[n+]([O-])c1)C(=O)N[C@@H](CC(C)C)C(=O)N[C@@H](CCCCNC(C)C)C(=O)N1CCC[C@H]1C(=O)N[C@H](C)C(N)=O [Compound 3828, Ac-D-Nal^1,4-Cl-D-Phe^2, D-Pal^3, N-Me-Tyr^5, D-Lys(Onic)^8, Lys(iPr)^8, D-Ala^10-LHRH.TFA] (Ac-[d2Nal][dPhe(4-Cl)][d3Pal]S[NMeY][dK](X1)L[Lys(iPr)]P[dA]-NH2) | – | – | –
7 | low histamine release | CC(=O)N[C@H](Cc1ccc2ccccc2c1)C(=O)N[C@H](Cc1ccc(Cl)cc1)C(=O)N[C@H](Cc1c[nH]c2ccccc12)C(=O)N[C@@H](CO)C(=O)N[C@@H](Cc1ccc(O)cc1)C(=O)N[C@H](CC[S+](C)C)C(=O)N[C@@H](CC(C)C)C(=O)N[C@@H](CC[S+](C)C)C(=O)N1CCC[C@H]1C(=O)N[C@H](C)C(N)=O [Compound 3925, Ac-D-Nal^1,4-Cl-D-Phe^2, D-Trp^3, D-Met(S^+Me)^6, Met(S^+Me)^8, D-Ala^10-LHRH.2TFA] (Ac-[d2Nal][dPhe(4-Cl)][dW]SY[X3]L[X4]P[dA]-NH2) | – | – | –
8 | – | Ac-D-(or L)-Ada-Ala^1, 4-Cl-D-Phe^2, D-Pal^3, D-Cit^6-Lys(iPr)^8, D-Ala^10-LHRH.TFA [Compound 3368] | 34 | – | AO activity (AOA): rats which ovulate / rats treated (ovulation in female rats [1]; dose 5 μg per rat): 5/8@5 μg
9 | – | Ac-D-Nal^1, 4-Cl-D-Phe^2, D-Pal^3, D-Cit^6-Lys(iPr)^8, Pip^9-D-Ala^10-LHRH.TFA [Compound 3344] | 32 | 9/10@1 μg | –
10 | – | Ac-D-Nal^1, 4-Cl-D-Phe^2, D-Pal^3, D-Cit^6-Lys(iPr)^8, Pip^9-LHRH.TFA [Compound 3363] | 25 | 6/8@1 μg | –
11 | – | Ac-D-Nal^1, 4-Cl-D-Phe^2, D-Pal^3, D-Cit^6-Lys(iPr)^8, ProNHEt^9-des-Gly^10-LHRH.TFA [Compound 3365] | 24 | – | –
12 | – | Ac-D-Nal^1, 4-Cl-D-Phe^2, D-Pal^3, D-Cit^6-Lys(iPr)^8-LHRH.TFA [Compound 3362] | 22 | 4/8@1 μg | –
13 | – | Ac-D-Nal^1, 4-Cl-D-Phe^2, D-Pal^3, D-Lys(Imdac)^6, Lys(iPr)^8, D-Ala^10-LHRH.TFA [Compound 3741] | – | 1/8@1.0 | AO activity (AOA), in words (ovulation in female rats [1]): good AO activity; AO activity (AOA): rats which ovulate / rats treated (ovulation in female rats [2]): 6/8@0.5
14 | – | Ac-D-Nal^1, 4-Cl-D-Phe^2, D-Pal^3, D-Lys(OTac)^6, Lys(iPr)^8, D-Ala^10-LHRH.TFA [Compound 3508] | – | 0/8@1 μg | AO activity (AOA): rats which ovulate / rats treated (ovulation in female rats [2]): 6/8@0.5 μg
15 | – | Ac-D-Nal^1, 4-Cl-D-Phe^2, D-Pal^3, D-Lys(Ppic)^6, Lys(iPr)^8, D-Ala^10-LHRH.TFA [Compound 3760] | – | 1/8@1.0 | AO activity (AOA), in words (ovulation in female rats [1]): good AO activity; AO activity (AOA): rats which ovulate / rats treated (ovulation in female rats [2]): 7/8@0.5
16 | – | Ac-D-Nal^1, 4-Cl-D-Phe^2, D-Pal^3, D-Lys(iPrPic)^6, Lys(iPr)^8, D-Ala^10-LHRH.TFA [Compound 3438] | 5.6 | 2/8@1 μg | –
17 | – | Ac-D-Nal^1, 4-Cl-D-Phe^2, D-Pal^3, D-Phe(4-NO2)^6-Lys(iPr)^8, D-Ala^10-LHRH.TFA [Compound 3364] | 14 | 6/8@1 μg | –
18 | – | Ac-D-Nal^1, 4-Cl-D-Phe^2, D-Pal^3, His^5D-Pal(iPr)^6, Lys(iPr)^8, D-Ala^10-LHRH.2TFA [Compound 3982] | – | 8/8@1.00 | Histamine release ED50 (rat mast cells; footnote c: run with Nal arg reference 0.28): 53 µg/mL; Histamine release ED50 (rat mast cells; footnote d: run with Nal arg reference 0.11): 33 µg/mL
19 | – | Ac-D-Nal^1, 4-Cl-D-Phe^2, D-Pal^3, Pal^5, D-Pal(iPr)^6, Lys(iPr)^8, D-Ala^10-LHRH.TFA [Compound 3430] | 10 | 3/8@1 μg | –
20 | – | Ac-D-Nal^1, 4-Cl-D-Phe^2, D-Trp^3, D-Arg^6, Met(S^+Me)^8, D-Ala^10-LHRH.2TFA [Compound 3878] | – | 2.8@1.0 | AO activity (AOA): rats which ovulate / rats treated (ovulation in female rats [2]): 7/8@0.5
21 | low histamine release | Ac-L-(or D)-Ada-Ala^1, 4-Cl-D-Phe^2, D-Pal^3, D-Cit^6-Lys(iPr)^8, D-Ala^10-LHRH.TFA [Compound 3369] | 93 | – | AO activity (AOA): rats which ovulate / rats treated (ovulation in female rats [1]; dose 5 μg per rat): 7/8@5 μg
22 | – | Ac-Sar^1, 4-Cl-D-Phe^2, D-1-Nal^3, D-Pal(iPr)^6, Lys(iPr)^8, D-Ala^10-LHRH.2TFA [Compound 3772] | – | 8/8@1.0 | –
23 | – | Ac-Sar^1, 4-Cl-D-Phe^2, L-1-Nal^3, D-Pal(iPr)^6, Lys(iPr)^8, D-Ala^10-LHRH.2TFA [Compound 3773] | – | 7/8@1.0 | –
24 | – | Lys(COCH2Br)^8-LHRH [Compound 3942] | – | – | AO activity (AOA): rats which ovulate / rats treated (ovulation in female rats [1]; dose 50 μg per rat): 8/8@50.0
25 | – | Met(S^+Me)^8-LHRH.TFA [Compound 3941] | – | – | AO activity (AOA): rats which ovulate / rats treated (ovulation in female rats [1]; dose 50 μg per rat): 8/8@50.0
